In BindingDB's records for doi:10.1021/jm801327q (Cnrs, 2009) one finds EC50 and Ki data, which are given here for 2 molecules.

Assay [1] addresses Amyloid-beta precursor protein (Homo sapiens) (UniProt P05067). As to the kind of experiment: EC/IC50 was the effective concentration of agonist inhibiting the formation of A-beta fibrils to 50% of the control value. Three independent measurements were made for all cases.
Assay [2] has as its target 5-hydroxytryptamine receptor 4 (Homo sapiens, UniProt Q13639). In words: Radioligand Binding Assay (Ki) and cAMP Accumulation Assay (EC50). The note with it: pH 7.4; 25 °C. As to the method:
Nonspecific binding was determined with 10 uM GR113808. After incubation, the reaction was terminated by filtration through Whatman GF/B. Radioactivity was measured using a Beckman model LS6500C liquid scintillation counter. Binding data are expressed as a percentage of displacement for the screening of the library compounds. For selected compounds, Ki were analyzed by computer-assisted nonlinear regression analysis (Prism, Graphpad Software, San Diego, CA). EC50 values correspond to the concentration of agonists required to obtain half maximal stimulation of adenylyl cyclase. […] The data are the results of two or three independent determinations performed in triplicate.

5-hydroxytryptamine receptor 4, sequence (Q13639 whole entry): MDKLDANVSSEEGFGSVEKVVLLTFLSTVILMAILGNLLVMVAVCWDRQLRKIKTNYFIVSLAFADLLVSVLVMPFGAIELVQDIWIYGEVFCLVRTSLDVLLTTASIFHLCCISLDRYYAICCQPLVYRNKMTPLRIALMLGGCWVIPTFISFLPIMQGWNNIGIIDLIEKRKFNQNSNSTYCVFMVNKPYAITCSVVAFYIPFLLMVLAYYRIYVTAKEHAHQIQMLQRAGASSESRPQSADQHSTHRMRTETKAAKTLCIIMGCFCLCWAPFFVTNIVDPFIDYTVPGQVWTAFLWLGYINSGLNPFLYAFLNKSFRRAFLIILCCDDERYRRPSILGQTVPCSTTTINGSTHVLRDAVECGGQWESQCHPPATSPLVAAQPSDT
Amyloid-beta precursor protein (Homo sapiens), sequence (P05067 whole entry, looked up): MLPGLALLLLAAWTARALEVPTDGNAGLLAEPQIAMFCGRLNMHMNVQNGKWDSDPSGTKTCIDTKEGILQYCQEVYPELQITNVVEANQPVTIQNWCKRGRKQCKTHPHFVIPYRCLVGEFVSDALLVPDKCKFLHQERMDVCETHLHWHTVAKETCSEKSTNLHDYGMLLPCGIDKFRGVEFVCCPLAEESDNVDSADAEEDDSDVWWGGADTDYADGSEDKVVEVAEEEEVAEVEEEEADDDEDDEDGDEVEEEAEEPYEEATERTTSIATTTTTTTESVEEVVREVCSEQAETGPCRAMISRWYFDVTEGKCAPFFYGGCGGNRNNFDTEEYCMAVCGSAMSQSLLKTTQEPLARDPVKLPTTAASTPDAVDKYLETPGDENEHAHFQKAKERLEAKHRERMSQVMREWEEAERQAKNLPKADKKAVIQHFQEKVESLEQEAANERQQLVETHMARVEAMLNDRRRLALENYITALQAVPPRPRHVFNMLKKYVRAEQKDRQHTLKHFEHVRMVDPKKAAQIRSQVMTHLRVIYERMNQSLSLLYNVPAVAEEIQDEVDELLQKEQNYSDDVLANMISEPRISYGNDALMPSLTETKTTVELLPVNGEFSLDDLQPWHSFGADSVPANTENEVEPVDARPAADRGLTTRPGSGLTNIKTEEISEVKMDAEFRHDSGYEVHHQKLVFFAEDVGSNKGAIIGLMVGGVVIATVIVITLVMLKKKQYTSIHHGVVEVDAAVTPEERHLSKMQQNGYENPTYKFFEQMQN

As to `COc1cc(N)c(Cl)cc1C(=O)OCCN1CCC(NC(=O)CCCNCCCc2ccc(CCCNCCCC(=O)NC3CCN(CCOC(=O)c4cc(Cl)c(N)cc4OC)CC3)cc2)CC1` [ML10302 scaffold, 14], the half-maximal effective concentration (EC50) (commonly the midpoint of the concentration-response curve) in assay [1] was found to be 9 µM. On to `COc1cc(N)c(Cl)cc1C(=O)OCCN1CCC(NC(=O)CCCCCN2C(=O)c3cccc4c(N)ccc(c34)C2=O)CC1` [ML10302 scaffold, 9{a;y}], for which, in assay [2], the EC50 came out at 0.004 µM and the inhibition constant Ki (in general, a measure of affinity in units of concentration, obtained from inhibition or displacement) was 0.111 µM.
